Data reported in the supplement of paper PMC11061612.

Tests used:
Assay in all cases: combination Emax (second highest fraction inhibited in the dose matrix, 72 h); higher = more inhibition; extreme values may be limits of the assay
[1] = system: SK-LMS-1 (Other Solid Carcinomas)
Procedure, shortened: (§1)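 After 24 hours at 37°C and 5% CO2 in 1536-well plates, cells in DMEM/F12 or RPMI plus 10% FBS received two-drug dose matrices for 72 hours. Viability came from CellTiter-Glo 2.0 luminescence and was scaled as inhibition, anchored at 0 by vehicle wells and at 1 by blank wells. Combination Emax is taken as the second-highest inhibition in the matrix, and Bliss excess as the observed combination effect less EA + EB − EA·EB, with EA and EB the single-agent effects.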

[2] = system: SNU-61 (Colorectal Carcinoma)
Procedure, shortened: as §1

A172 (Glioblastoma) = system: A172 (Glioblastoma)
Procedure, shortened: as §1

[3] = system: EKVX (Non-Small Cell Lung Carcinoma)
Procedure, shortened: as §1

[4] = system: YT (Other Blood Carcinomas)
Procedure, shortened: as §1

[5] = system: JHH-6 (Hepatocellular Carcinoma)
Procedure, shortened: as §1

[6] = system: MES-SA (Other Solid Carcinomas)
Procedure, shortened: as §1

[7] = system: MEG-01 (Chronic Myelogenous Leukemia)
Procedure, shortened: as §1

Saos-2 (Osteosarcoma) = system: Saos-2 (Osteosarcoma)
Procedure, shortened: as §1

[8] = system: SKN-3 (Head and Neck Carcinoma)
Procedure, shortened: as §1

[9] = system: GDM-1 (Acute Myeloid Leukemia)
Procedure, shortened: as §1

CS1 (Chondrosarcoma) = system: CS1 (Chondrosarcoma)
Procedure, shortened: as §1

[10] = system: SW48 (Colorectal Carcinoma)
Procedure, shortened: as §1

[11] = system: HCC-827 (Lung Adenocarcinoma)
Procedure, shortened: as §1

HuO9 (Osteosarcoma) = system: HuO9 (Osteosarcoma)
Procedure, shortened: as §1

[12] = system: HCC1143 (Breast Carcinoma)
Procedure, shortened: as §1

[13] = system: TYK-nu (Ovarian Carcinoma)
Procedure, shortened: as §1

[14] = system: KG-1 (Acute Myeloid Leukemia)
Procedure, shortened: as §1

[15] = system: SNG-M (Endometrial Carcinoma)
Procedure, shortened: as §1

MCF7 (Breast Carcinoma) = system: MCF7 (Breast Carcinoma)
Procedure, shortened: as §1

Compound | combination Emax [1] | combination Emax [2] | combination Emax (A172 (Glioblastoma)) | combination Emax [3] | combination Emax [4] | combination Emax [5] | combination Emax [6] | combination Emax [7] | combination Emax (Saos-2 (Osteosarcoma)) | combination Emax [8] | combination Emax [9] | combination Emax (CS1 (Chondrosarcoma)) | combination Emax [10] | combination Emax [11] | combination Emax (HuO9 (Osteosarcoma)) | combination Emax [12] | combination Emax [13] | combination Emax [14] | combination Emax [15] | combination Emax (MCF7 (Breast Carcinoma))
Cc1c2c(nn1C)CSCc1cc(n(C)n1)CSc1cc(c3ccccc3c1)OCCCc1c(C(=O)O)n(C)c3c-2c(Cl)ccc13 [AZD5991] + C1CN(CCC1(C(=O)N[C@@H](CCO)C2=CC=C(C=C2)Cl)N)C3=NC=NC4=C3C=CN4 [Capivasertib] (first compound max 1 µM, 7x7, partner max 3 µM) | 0.302 | 0.117 | 0.234 | 0.301 | 1 | 0.278 | 0.367 | 0.361 | 0.52 | 0.121 | 0.454 | 0.255 | 0.28 | 0.314 | 1 | 0.252 | 0.36 | 1 | 0.333 | 0.687
Cc1c2c(nn1C)CSCc1cc(n(C)n1)CSc1cc(c3ccccc3c1)OCCCc1c(C(=O)O)n(C)c3c-2c(Cl)ccc13 [AZD5991] + C=CCn1c(=O)c2cnc(Nc3ccc(N4CCN(C)CC4)cc3)nc2n1-c1cccc(C(C)(C)O)n1 [AZD1775] (first compound max 1 µM, partner max 1 µM) | 0.431 | 0.49 | 0.609 | 0.316 | 0.998 | 0.326 | 0.84 | 0.927 | 0.801 | 0.696 | 0.961 | 0.563 | 0.402 | 0.401 | 1 | 0.797 | 0.761 | 1 | 0.733 | 0.652
Cc1c2c(nn1C)CSCc1cc(n(C)n1)CSc1cc(c3ccccc3c1)OCCCc1c(C(=O)O)n(C)c3c-2c(Cl)ccc13 [AZD5991] + CC1(C)CCC(CN2CCN(c3ccc(C(=O)NS(=O)(=O)c4ccc(NCC5CCOCC5)c([N+](=O)[O-])c4)c(Oc4cnc5[nH]ccc5c4)c3)CC2)=C(c2ccc(Cl)cc2)C1 [Venetoclax] (first compound max 1 µM, 7x7, partner max 1 µM) | 0.115 | 0.155 | 0.268 | 0.138 | 1 | 0.0668 | 0.323 | 0.837 | 0.534 | 0.15 | 0.999 | 0.16 | 0.339 | 0.182 | 1 | 0.252 | 0.233 | 1 | 0.209 | 0.745
Cc1c2c(nn1C)CSCc1cc(n(C)n1)CSc1cc(c3ccccc3c1)OCCCc1c(C(=O)O)n(C)c3c-2c(Cl)ccc13 [AZD5991] + CCN(CCO)CCCOc1ccc2c(Nc3cc(CC(=O)Nc4cccc(F)c4)[nH]n3)ncnc2c1 [AZD2811] (first compound max 1 µM, 7x7, partner max 1 µM) | 0.272 | 0.254 | 0.474 | 0.226 | 1 | 0.257 | 0.806 | 0.758 | 0.816 | 0.271 | 0.949 | 0.315 | 0.984 | 0.245 | 0.991 | 0.371 | 0.534 | 1 | 0.345 | 0.692
Cc1c2c(nn1C)CSCc1cc(n(C)n1)CSc1cc(c3ccccc3c1)OCCCc1c(C(=O)O)n(C)c3c-2c(Cl)ccc13 [AZD5991] + CN(C)CCCOc1ccc(-c2ccc3ncc4c(c3c2)n(C2CCOCC2)c(=O)n4C)cn1 [AZD0156] (first compound max 1 µM, 7x7, partner max 1 µM) | 0.205 | 0.196 | 0.228 | 0.239 | 1 | 0.188 | 0.384 | 0.432 | 0.239 | 0.339 | 0.549 | 0.235 | 0.216 | 0.345 | 1 | 0.364 | 0.397 | 1 | 0.209 | 0.612
Cc1c2c(nn1C)CSCc1cc(n(C)n1)CSc1cc(c3ccccc3c1)OCCCc1c(C(=O)O)n(C)c3c-2c(Cl)ccc13 [AZD5991] + C[C@@H]1COCCN1C2=NC(=NC(=C2)C3(CC3)[S@](=N)(=O)C)C4=C5C=CNC5=NC=C4 [AZD6738] (first compound max 1 µM, 7x7, partner max 10 µM) | 0.453 | 0.349 | 0.679 | 0.29 | 1 | 0.416 | 0.762 | 0.931 | 0.6 | 0.687 | 0.91 | 0.591 | 0.739 | 0.426 | 1 | 0.827 | 0.74 | 1 | 0.88 | 0.776
Cc1c2c(nn1C)CSCc1cc(n(C)n1)CSc1cc(c3ccccc3c1)OCCCc1c(C(=O)O)n(C)c3c-2c(Cl)ccc13 [AZD5991] + C[C@@H](Nc1cc(F)cc(F)c1)c1cc(C(=O)N(C)C)cc2c(=O)cc(N3CCOCC3)oc12 [AZD8186] (first compound max 1 µM, 7x7, partner max 3 µM) | 0.453 | 0.168 | 0.304 | 0.29 | 1 | 0.236 | 0.267 | 0.416 | 0.491 | 0.31 | 0.767 | 0.235 | 0.387 | 0.288 | 1 | 0.342 | 0.254 | 1 | 0.311 | 0.71
Cc1c2c(nn1C)CSCc1cc(n(C)n1)CSc1cc(c3ccccc3c1)OCCCc1c(C(=O)O)n(C)c3c-2c(Cl)ccc13 [AZD5991] + Cc1cc2ncnn2cc1Nc1ncc2c(n1)n(C1CCOCC1)c(=O)n2C [AZD7648] (first compound max 1 µM, 7x7, partner max 10 µM) | 0.344 | 0.19 | 0.322 | 0.303 | 1 | 0.219 | 0.221 | 0.468 | 0.285 | 0.179 | 0.619 | 0.207 | 0.33 | 0.288 | 1 | 0.267 | 0.412 | 1 | 0.299 | 0.665
Cc1c2c(nn1C)CSCc1cc(n(C)n1)CSc1cc(c3ccccc3c1)OCCCc1c(C(=O)O)n(C)c3c-2c(Cl)ccc13 [AZD5991] + Cn1cnc2c(F)c(Nc3ccc(Br)cc3Cl)c(C(=O)NOCCO)cc21 [Selumetinib] (first compound max 1 µM, 7x7, partner max 3 µM) | 0.22 | 0.464 | 0.316 | 0.348 | 1 | 0.253 | 0.23 | 0.872 | 0.247 | 0.387 | 0.374 | 0.224 | 0.565 | 0.201 | 1 | 0.383 | 0.513 | 1 | 0.233 | 0.559
C[C@@H]1COCCN1c1cc(C2([S@](C)(=N)=O)CC2)nc(-c2ccnc3[nH]ccc23)n1 [AZD6738] + O=C(c1cc(Cc2n[nH]c(=O)c3ccccc23)ccc1F)N1CCN(C(=O)C2CC2)CC1 [Olaparib] (first compound max 10 µM, 7x7, partner max 10 µM) | 0.529 | 0.27 | 0.717 | 0.32 | 0.75 | 0.263 | 0.643 | 0.908 | 0.466 | 0.391 | 0.624 | 0.67 | 0.72 | 0.498 | 0.857 | 0.701 | 0.665 | 0.739 | 0.898 | 0.573
Cc1cc2ncnn2cc1Nc1ncc2c(n1)n(C1CCOCC1)c(=O)n2C [AZD7648] + C=CCn1c(=O)c2cnc(Nc3ccc(N4CCN(C)CC4)cc3)nc2n1-c1cccc(C(C)(C)O)n1 [AZD1775] (first compound max 10 µM, partner max 1 µM) | 0.572 | 0.401 | 0.617 | 0.306 | 0.89 | 0.311 | 0.75 | 0.923 | 0.582 | 0.283 | 0.894 | 0.541 | 0.45 | 0.497 | 0.724 | 0.603 | 0.695 | 0.452 | 0.645 | 0.552
Cc1cc2ncnn2cc1Nc1ncc2c(n1)n(C1CCOCC1)c(=O)n2C [AZD7648] + CCN(CCO)CCCOc1ccc2c(Nc3cc(CC(=O)Nc4cccc(F)c4)[nH]n3)ncnc2c1 [AZD2811] (first compound max 10 µM, 7x7, partner max 1 µM) | 0.409 | 0.254 | 0.611 | 0.309 | 0.624 | 0.339 | 0.57 | 0.507 | 0.45 | 0.128 | 0.859 | 0.343 | 0.963 | 0.24 | 0.369 | 0.403 | 0.422 | 0.386 | 0.281 | 0.55
Cc1cc2ncnn2cc1Nc1ncc2c(n1)n(C1CCOCC1)c(=O)n2C [AZD7648] + CN(C)CCCOc1ccc(-c2ccc3ncc4c(c3c2)n(C2CCOCC2)c(=O)n4C)cn1 [AZD0156] (first compound max 10 µM, 7x7, partner max 1 µM) | 0.428 | 0.172 | 0.319 | 0.315 | 0.705 | 0.279 | 0.475 | 0.361 | 0.171 | 0.111 | 0.657 | 0.306 | 0.329 | 0.297 | 0.369 | 0.242 | 0.431 | 0.323 | 0.205 | 0.373
